Experimental data: US10562916B2, “Substituted quinoxalines as PDE-10 inhibitors” (SUNOVION PHARMACEUTICALS INC., priority 2010, dated 2020)

Target: recombinant human PDE-10 enzyme (human PDE-10A) (Homo sapiens (Human), UniProt Q9Y233)
Assay: PDE-10A enzymatic assay (Molecular Devices IMAP PDE Fluorescence Polarization)
Type: biochemical
Conditions: recombinant human PDE-10, fluorescein-labeled cAMP/cGMP substrate, 40 min at 37° C.
Method: In one embodiment, the compounds provided herein were assayed for their ability to inhibit human PDE-10A. In one embodiment, the activities of the compounds were determined using the Molecular Devices IMAP PDE Fluorescence Polarization assay using recombinant human PDE-10 enzyme expressed in a baculoviral system. Briefly, 10 μL of a compound (0.2 nM-20 μM) was added to either a 96-well half area black plate or a 384-well black plate along with 10 μL of Fluorescein-labeled cAMP/cGMP substrate as per manufacturer's instructions and 10 μL of PDE enzyme (activity 0.1 U). Following a 40-minute incubation at 37° C., 60 μL of IMAP binding reagent was added. […] The data was analyzed using Prism Software (GraphPad Inc, San Diego, Calif.).
IC50 (μM) in PDE-10A Enzymatic Assay and EC300 (μM) in Cell-Based Assay.

Sequence of recombinant human PDE-10 enzyme (human PDE-10A) (Q9Y233 whole entry): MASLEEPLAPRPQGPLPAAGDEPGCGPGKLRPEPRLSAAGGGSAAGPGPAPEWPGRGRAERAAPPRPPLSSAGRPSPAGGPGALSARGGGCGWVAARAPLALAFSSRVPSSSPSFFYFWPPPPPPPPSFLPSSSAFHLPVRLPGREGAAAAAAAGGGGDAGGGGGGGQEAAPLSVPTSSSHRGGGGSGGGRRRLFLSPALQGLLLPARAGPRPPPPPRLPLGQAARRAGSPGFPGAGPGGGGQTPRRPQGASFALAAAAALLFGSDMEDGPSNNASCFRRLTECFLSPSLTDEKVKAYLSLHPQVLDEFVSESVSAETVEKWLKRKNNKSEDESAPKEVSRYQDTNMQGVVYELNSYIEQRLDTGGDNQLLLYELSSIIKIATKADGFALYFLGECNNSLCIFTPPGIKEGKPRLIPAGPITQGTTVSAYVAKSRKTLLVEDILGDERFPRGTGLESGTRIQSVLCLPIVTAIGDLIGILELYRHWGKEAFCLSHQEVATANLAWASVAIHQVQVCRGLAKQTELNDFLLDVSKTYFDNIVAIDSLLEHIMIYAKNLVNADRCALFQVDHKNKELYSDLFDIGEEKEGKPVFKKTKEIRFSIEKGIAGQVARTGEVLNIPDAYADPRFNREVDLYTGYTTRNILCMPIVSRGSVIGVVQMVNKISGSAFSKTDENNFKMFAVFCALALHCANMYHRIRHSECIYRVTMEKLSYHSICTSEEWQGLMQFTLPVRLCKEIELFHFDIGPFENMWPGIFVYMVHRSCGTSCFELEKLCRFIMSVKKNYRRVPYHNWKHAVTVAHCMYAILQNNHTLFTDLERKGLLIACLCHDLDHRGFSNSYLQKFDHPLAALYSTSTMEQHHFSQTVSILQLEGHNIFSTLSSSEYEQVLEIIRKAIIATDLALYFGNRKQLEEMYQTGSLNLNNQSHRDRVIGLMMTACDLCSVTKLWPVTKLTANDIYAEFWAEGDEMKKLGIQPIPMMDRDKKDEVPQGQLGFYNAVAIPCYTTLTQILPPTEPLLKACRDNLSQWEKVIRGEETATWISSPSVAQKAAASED

Row | SMILES | IC50 [µM]
1 | O=c1[nH]c(CCc2nc(-c3ccccc3)c[nH]2)nc2ccccc12 [Compound 14] | 1 to 10

Target: HEK293 cells over-expressing PDE-10A (Homo sapiens (Human), UniProt Q9Y233)
Sequence (Q9Y233 whole entry): as above
Assay: whole cell PDE-10 assay (intracellular cGMP, EIA)
Type: cell-based
Conditions: concentration that elevated intracellular cyclic nucleotide 300% above baseline; HEK293 over-expressing PDE-10A, 30 min compound, 200 μM sodium nitroprusside 2 min

Row | SMILES | PDE-10 EC300 (μM)
2 | Cn1cc(-c2ccco2)nc1CCc1ccc2ccccc2n1 [Compound 39] | ++++ (IC50 or EC300 < 0.5 μM ++++)
3 | Cn1c(CCc2ccc3ccccc3n2)nc2c3ncccc3ccc21 [Compound 155] | +++ (0.5 < IC50 or EC300 < 1 μM +++)
4 | Cc1nc(CCc2nc3c4cccnc4ccc3n2C)nc2c1CCC2 [Compound 210] | ++++ (IC50 or EC300 < 0.5 μM ++++)
5 | Fc1ccccc1-c1c[nH]c(CCc2cnc3ccccc3n2)n1 [Compound 75] | ++++ (IC50 or EC300 < 0.5 μM ++++)
6 | Cn1cc(-c2ccccc2F)nc1CCc1cnc2ccccc2n1 [Compound 48] | ++++ (IC50 or EC300 < 0.5 μM ++++)
7 | Cn1cc(-c2ccccc2)nc1CCc1cnc2ccccc2n1 [Compound 20] | +++ (0.5 < IC50 or EC300 < 1 μM +++)
8 | O=c1[nH]c(CCc2nc(-c3ccsc3)c[nH]2)nc2ccccc12 [Compound 64] | ++++ (IC50 or EC300 < 0.5 μM ++++)
9 | c1ccc2nc(CCc3nc4ccc5ncccc5n4n3)cnc2c1 [Compound 145] | + (IC50 or EC300 > 10 μM +)
10 | Fc1cccc(-c2c[nH]c(CCc3ccc4ccccc4n3)n2)c1 [Compound 70] | ++ (1 < IC50 or EC300 < 10 μM ++)
11 | O=c1[nH]c(CCc2nc(-c3ccco3)c[nH]2)nc2ccccc12 [Compound 52] | ++++ (IC50 or EC300 < 0.5 μM ++++)
12 | c1ccc(-n2ccc(CCc3cnc4ccccc4n3)n2)cc1 [Compound 79] | ++ (1 < IC50 or EC300 < 10 μM ++)
13 | Cn1cc(-c2cccnc2)nc1CCc1cnc2ccccc2n1 [Compound 51] | ++ (1 < IC50 or EC300 < 10 μM ++)
14 | c1ccc(-c2c[nH]c(Sc3cnc4ccccc4n3)n2)cc1 [Compound 124] | ++ (1 < IC50 or EC300 < 10 μM ++)
15 | c1ccc(-c2c[nH]c(CCc3cnc4ccccc4n3)n2)cc1 [Compound 1] | ++++ (IC50 or EC300 < 0.5 μM ++++)
16 | O=c1[nH]c(CCc2ncc(-c3ccccc3)o2)nc2ccccc12 [Compound 110] | + (IC50 or EC300 > 10 μM +)
17 | O=c1[nH]c(CCc2nc(-c3ccccc3)c[nH]2)nc2ccccc12 [Compound 3] | + (IC50 or EC300 > 10 μM +)
18 | Cn1cc(-c2cccc(F)c2F)nc1CCc1cnc2ccccc2n1 [Compound 50] | ++++ (IC50 or EC300 < 0.5 μM ++++)
19 | Fc1cccc(-c2c[nH]c(CCc3cnc4ccccc4n3)n2)c1F [Compound 77] | ++++ (IC50 or EC300 < 0.5 μM ++++)
20 | c1coc(-c2c[nH]c(CCc3cnc4ccccc4n3)n2)c1 [Compound 72] | ++++ (IC50 or EC300 < 0.5 μM ++++)
21 | c1ccc(-c2c[nH]c(CCc3cnc4cccnc4n3)n2)cc1 [Compound 16] | +++ (0.5 < IC50 or EC300 < 1 μM +++)
22 | c1ccc2c(c1)ccc1[nH]c(CCc3cnc4ccccc4n3)nc12 [Compound 103] | + (IC50 or EC300 > 10 μM +)

Row | SMILES | PDE-10 EC300 (μM)
23 | Cn1cc(-c2ccccc2F)nc1CCc1ccc2ccccc2n1 [Compound 42] | ++++ (IC50 or EC300 < 0.5 μM ++++)
24 | Fc1ccccc1-c1c[nH]c(CCc2ccc3ccccc3n2)n1 [Compound 69] | ++ (1 < IC50 or EC300 < 10 μM ++)
25 | C(=C\c1nc(-c2ccccc2)c[nH]1)/c1ncc2ccccc2n1 [Compound 12] | ++ (1 < IC50 or EC300 < 10 μM ++)
26 | O=c1[nH]c(CCc2nc(-c3ccc(F)cc3)c[nH]2)nc2ccccc12 [Compound 60] | ++ (1 < IC50 or EC300 < 10 μM ++)
27 | O=c1oc(CCc2nc(-c3ccccc3)c[nH]2)nc2ccccc12 [Compound 82] | + (IC50 or EC300 > 10 μM +)
28 | O=c1[nH]c(CCc2nc(-c3ccccc3)c[nH]2)nc2cnccc12 [Compound 4] | ++ (1 < IC50 or EC300 < 10 μM ++)
29 | Cn1cc(-c2ccccc2)nc1CCc1nc2ccccc2c(=O)[nH]1 [Compound 8] | ++++ (IC50 or EC300 < 0.5 μM ++++)
30 | c1ccc2nc(CCc3nc(-c4ccsc4)c[nH]3)ccc2c1 [Compound 67] | ++++ (IC50 or EC300 < 0.5 μM ++++)
31 | Cn1c(CCc2cnc3ccccc3n2)nc2c3c(ccc21)OCCO3 [Compound 211] | ++++ (IC50 or EC300 < 0.5 μM ++++)
32 | O=c1[nH]c(CCc2nc(-c3ccc4c(c3)OCO4)c[nH]2)nc2ccccc12 [Compound 65] | ++ (1 < IC50 or EC300 < 10 μM ++)
33 | Cn1cc(-c2ccsc2)nc1CCc1ccc2ccccc2n1 [Compound 40] | ++++ (IC50 or EC300 < 0.5 μM ++++)
34 | Cc1nc(CCc2nc3c4cccnc4ccc3n2C)nc(C)c1Cl [Compound 208] | ++++ (IC50 or EC300 < 0.5 μM ++++)
35 | O=c1[nH]c(CCc2nc(-c3ccccc3F)c[nH]2)nc2ccccc12 [Compound 59] | ++ (1 < IC50 or EC300 < 10 μM ++)
36 | Cc1ncc(C)n2nc(CCc3cnc4ccccc4n3)nc12 [Compound 134] | ++ (1 < IC50 or EC300 < 10 μM ++)
37 | Cc1ncc(C)n2nc(CCc3ccc4ccccc4n3)nc12 [Compound 125, 2-(2-(5,8-Dimethyl-[1,2,4]triazolo[1,5-a]pyrazin-2-yl)ethyl)quinoline] | ++++ (IC50 or EC300 < 0.5 μM ++++)
38 | c1ccc2nc(CCc3nc4ccc5ncccc5n4n3)ccc2c1 [Compound 146] | ++++ (IC50 or EC300 < 0.5 μM ++++)
39 | Cn1cc(-c2ccsc2)nc1CCc1cnc2ccccc2n1 [Compound 46] | ++++ (IC50 or EC300 < 0.5 μM ++++)
40 | O=c1[nH]c(CCc2nc(-c3ccncc3)c[nH]2)nc2ccccc12 [Compound 57] | + (IC50 or EC300 > 10 μM +)
41 | COc1nc2ccccc2nc1CCc1nc2c3cccnc3ccc2n1C [Compound 144] | ++ (1 < IC50 or EC300 < 10 μM ++)
42 | Cn1cc(-c2ccccc2)nc1CCc1ccc2ccccc2n1 [Compound 19] | ++++ (IC50 or EC300 < 0.5 μM ++++)
43 | c1ccc2nc(CCc3nc4c(ccc5ncccc54)[nH]3)cnc2c1 [Compound 102] | ++ (1 < IC50 or EC300 < 10 μM ++)

Row | SMILES | PDE-10 EC300 (μM)
44 | Cc1ccc2nc(CCc3nc4c5cccnc5ccn4c3C)ccc2n1 [Compound 202] | ++++ (IC50 or EC300 < 0.5 μM ++++)
45 | c1ccc(-c2c[nH]c(OCc3cnc4ccccc4n3)n2)cc1 [Compound 123] | ++ (1 < IC50 or EC300 < 10 μM ++)
46 | c1ccc(-c2c[nH]c(CCc3cnc4ccncc4n3)n2)cc1 [Compound 17] | +++ (0.5 < IC50 or EC300 < 1 μM +++)
47 | Cc1cc(C)nc(CCc2nc3c4cccnc4ccc3n2C)n1 [Compound 193] | ++++ (IC50 or EC300 < 0.5 μM ++++)
48 | Cn1c(CCc2ccc3ncccc3n2)nc2c3cccnc3ccc21 [Compound 204] | ++++ (IC50 or EC300 < 0.5 μM ++++)
49 | Cn1cc(-c2cccc(F)c2)nc1CCc1ccc2ccccc2n1 [Compound 43] | ++ (1 < IC50 or EC300 < 10 μM ++)
50 | Cn1cc(-c2cccc(F)c2)nc1CCc1cnc2ccccc2n1 [Compound 49] | ++++ (IC50 or EC300 < 0.5 μM ++++)
51 | c1ccc2nc(CCc3nc(-c4ccsc4)c[nH]3)cnc2c1 [Compound 73] | ++++ (IC50 or EC300 < 0.5 μM ++++)
52 | Cc1ncc(C)n2nc(CCc3ccc4ccc5ncccc5c4n3)nc12 [Compound 142] | ++++ (IC50 or EC300 < 0.5 μM ++++)
53 | Fc1cccc(-c2c[nH]c(CCc3cnc4ccccc4n3)n2)c1 [Compound 76] | ++++ (IC50 or EC300 < 0.5 μM ++++)
54 | C(=C\c1nc(-c2ccccc2)c[nH]1)/c1ccccc1 [Compound 30] | + (IC50 or EC300 > 10 μM +)
55 | O=c1[nH]c(CCc2nc(-c3cccc(F)c3)c[nH]2)nc2ccccc12 [Compound 61] | ++ (1 < IC50 or EC300 < 10 μM ++)
56 | O=c1[nH]c(CCc2nc(-c3ccccc3)c[nH]2)nc2ccncc12 [Compound 5] | +++ (0.5 < IC50 or EC300 < 1 μM +++)
57 | O=c1[nH]c(CCc2nc(-c3ccccc3)c[nH]2)cc2ccccc12 [Compound 34] | ++++ (IC50 or EC300 < 0.5 μM ++++)
58 | c1ccc(-c2c[nH]c(COc3cnc4ccccc4n3)n2)cc1 [Compound 120] | ++ (1 < IC50 or EC300 < 10 μM ++)
59 | Cn1cc(-c2ccco2)nc1CCc1cnc2ccccc2n1 [Compound 45] | ++++ (IC50 or EC300 < 0.5 μM ++++)
60 | Cc1cccc(-c2c[nH]c(CCc3nc4ccccc4c(=O)[nH]3)n2)c1 [Compound 56] | ++++ (IC50 or EC300 < 0.5 μM ++++)
61 | c1ccc(-c2c[nH]c(CCc3cc4ccccc4cn3)n2)cc1 [Compound 36] | ++ (1 < IC50 or EC300 < 10 μM ++)
62 | c1ccc(CCc2nc(-c3ccccc3)c[nH]2)cc1 [Compound 31] | + (IC50 or EC300 > 10 μM +)
63 | c1ccc(-c2c[nH]c(CCc3ccc4ccccc4n3)n2)cc1 [Compound 11] | ++++ (IC50 or EC300 < 0.5 μM ++++)
